# Laboratory results: patent US9938257B2 (Sunshine Lake Pharma Co., Ltd., priority 2015, dated 2018)
# Assays:
# JAK1 (h) = JAK1 (h) (Homo sapiens (Human), UniProt P23458); assay: JAK1 (h) kinase activity assay; format: biochemical
# Description: (§1) The above assay procedure can be used to determine the IC50 for inhibition and/or the inhibition constant, Ki. The IC50 is defined as the concentration of compound required to reduce the enzyme activity by 50% under the condition of the assay. The IC50 value is estimated by preparing a 10 point curve using a ½ log dilution series (for example, a typical curve may be prepared using the following compound concentrations: 3 μM, 1 μM, 0.3 μM, 0.1 μM, 0.03 μM, 0.01 μM, 0.003 μM, 0.001 μM, 0.0003 μM and 0 μM).
# (§2) JAK1 (h) is incubated with 20 mM Tris/HCl pH 7.5, 0.2 mM EDTA, 500 μM GEEPLYWSFPAKKK, 10 mM MgAcetate and [γ-^33P-ATP] (specific activity approx. 500 cpm/pmol, concentration as required). The reaction is initiated by the addition of the MgATP mix. After incubation for 40 minutes at room temperature, the reaction is stopped by the addition of 3% phosphoric acid solution. 10 μL of the reaction is then spotted onto a P30 filtermat and washed three times for 5 minutes in 75 mM phosphoric acid and once in methanol prior to drying and scintillation counting.
# (§3) The kinase assays described herein were performed at Millipore UK Ltd, Dundee Technology Park, Dundee DD2 1SW, UK.
# JAK2 (h) = JAK2 (h) (Homo sapiens (Human), UniProt O60674); assay: JAK2 (h) kinase activity assay; format: biochemical
# Sequence of JAK2 (h) (O60674 whole entry): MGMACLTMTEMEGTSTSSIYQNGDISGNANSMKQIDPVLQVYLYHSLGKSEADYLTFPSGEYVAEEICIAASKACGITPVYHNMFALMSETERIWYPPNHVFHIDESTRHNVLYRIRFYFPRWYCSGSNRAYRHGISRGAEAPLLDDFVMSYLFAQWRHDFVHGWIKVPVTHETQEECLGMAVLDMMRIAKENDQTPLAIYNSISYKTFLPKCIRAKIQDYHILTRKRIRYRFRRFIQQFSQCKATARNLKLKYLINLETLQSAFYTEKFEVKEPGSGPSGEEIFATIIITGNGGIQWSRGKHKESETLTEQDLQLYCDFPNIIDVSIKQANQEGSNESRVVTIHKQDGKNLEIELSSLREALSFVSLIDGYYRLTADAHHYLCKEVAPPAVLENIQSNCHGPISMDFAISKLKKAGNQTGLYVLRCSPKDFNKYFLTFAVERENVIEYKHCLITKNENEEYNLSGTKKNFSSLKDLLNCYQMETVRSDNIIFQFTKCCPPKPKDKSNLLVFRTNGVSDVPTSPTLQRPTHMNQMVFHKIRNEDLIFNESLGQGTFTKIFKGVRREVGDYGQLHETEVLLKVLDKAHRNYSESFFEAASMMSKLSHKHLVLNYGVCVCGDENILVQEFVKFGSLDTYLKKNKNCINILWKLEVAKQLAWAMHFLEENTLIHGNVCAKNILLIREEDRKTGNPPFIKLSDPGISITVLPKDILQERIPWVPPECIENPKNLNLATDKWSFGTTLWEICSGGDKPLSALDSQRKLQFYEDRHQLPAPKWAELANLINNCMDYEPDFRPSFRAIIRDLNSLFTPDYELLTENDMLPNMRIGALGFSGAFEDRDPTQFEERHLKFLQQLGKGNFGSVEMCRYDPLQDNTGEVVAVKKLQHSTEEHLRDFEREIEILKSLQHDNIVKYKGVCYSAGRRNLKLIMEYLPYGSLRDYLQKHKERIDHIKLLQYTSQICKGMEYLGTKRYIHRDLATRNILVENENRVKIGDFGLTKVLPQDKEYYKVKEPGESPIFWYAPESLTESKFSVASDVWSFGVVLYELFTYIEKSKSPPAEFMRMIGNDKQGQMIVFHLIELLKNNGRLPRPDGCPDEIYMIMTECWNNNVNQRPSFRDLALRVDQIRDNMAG
# Description: as §1
# as §2, with “JAK2 (h)” for “JAK1 (h)”, “with 8” for “with 20”, “mM MOPS” for “mM Tris/HCl”, “pH 7.0,” for “pH 7.5,”, “EDTA, 100” for “EDTA, 500”, “μM […],” for “μM GEEPLYWSFPAKKK,”
# as §3
# Aurora-A (h) = Aurora-A (h) (Homo sapiens (Human), UniProt O14965); assay: Aurora-A (h) kinase activity assay; format: biochemical
# Sequence of Aurora-A (h) (O14965 whole entry): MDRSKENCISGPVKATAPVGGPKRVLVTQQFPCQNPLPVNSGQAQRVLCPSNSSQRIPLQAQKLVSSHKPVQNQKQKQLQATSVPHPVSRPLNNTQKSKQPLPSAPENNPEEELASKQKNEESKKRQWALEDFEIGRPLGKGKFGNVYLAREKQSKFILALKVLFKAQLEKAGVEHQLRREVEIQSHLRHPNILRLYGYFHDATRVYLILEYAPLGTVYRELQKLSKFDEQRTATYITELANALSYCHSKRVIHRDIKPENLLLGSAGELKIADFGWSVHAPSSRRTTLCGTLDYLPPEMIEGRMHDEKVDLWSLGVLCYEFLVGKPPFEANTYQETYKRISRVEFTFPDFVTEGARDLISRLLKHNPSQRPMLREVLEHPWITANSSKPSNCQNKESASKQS
# Description: as §1
# as §2, with “Aurora-A (h)” for “JAK1 (h)”, “with 8” for “with 20”, “mM MOPS” for “mM Tris/HCl”, “pH 7.0,” for “pH 7.5,”, “EDTA, 200” for “EDTA, 500”, “μM LRRASLG (Kemptide),” for “μM GEEPLYWSFPAKKK,”
# as §3
# Aurora-B (h) = Aurora-B (h) (Homo sapiens (Human), UniProt Q96GD4); assay: Aurora-B (h) kinase activity assay; format: biochemical
# Sequence of Aurora-B (h) (Q96GD4 whole entry): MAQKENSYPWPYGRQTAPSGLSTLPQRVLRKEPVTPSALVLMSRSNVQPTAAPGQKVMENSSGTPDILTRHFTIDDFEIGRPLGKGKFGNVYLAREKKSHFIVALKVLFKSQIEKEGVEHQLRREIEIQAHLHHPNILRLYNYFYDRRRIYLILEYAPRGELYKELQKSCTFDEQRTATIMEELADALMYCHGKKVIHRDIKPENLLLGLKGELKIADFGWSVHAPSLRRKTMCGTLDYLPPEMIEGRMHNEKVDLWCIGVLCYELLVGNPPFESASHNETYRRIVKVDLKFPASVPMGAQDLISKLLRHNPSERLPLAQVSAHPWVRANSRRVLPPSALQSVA
# Description: as §1
# (§4) Aurora-B (h) is incubated with 8 mM MOPS pH 7.0, 0.2 mM EDTA, 30 μM AKRRRLSSLRA, 10 mM MgAcetate and [γ-^33PATP] (specific activity approx. 500 cpm/pmol, concentration as required). The reaction is initiated by the addition of the MgATP mix. After incubation for 40 minutes at room temperature, the reaction is stopped by the addition of a 3% phosphoric acid solution. 10 μL of the reaction is then spotted onto a P30 filtermat and washed three times for 5 minutes in 75 mM phosphoric acid and once in methanol prior to drying and scintillation counting.
# as §3
# FLT3 (h) = FLT3 (h) (Homo sapiens (Human), UniProt P36888); assay: FLT3 (h) kinase activity assay; format: biochemical
# Sequence of FLT3 (h) (P36888 27-993): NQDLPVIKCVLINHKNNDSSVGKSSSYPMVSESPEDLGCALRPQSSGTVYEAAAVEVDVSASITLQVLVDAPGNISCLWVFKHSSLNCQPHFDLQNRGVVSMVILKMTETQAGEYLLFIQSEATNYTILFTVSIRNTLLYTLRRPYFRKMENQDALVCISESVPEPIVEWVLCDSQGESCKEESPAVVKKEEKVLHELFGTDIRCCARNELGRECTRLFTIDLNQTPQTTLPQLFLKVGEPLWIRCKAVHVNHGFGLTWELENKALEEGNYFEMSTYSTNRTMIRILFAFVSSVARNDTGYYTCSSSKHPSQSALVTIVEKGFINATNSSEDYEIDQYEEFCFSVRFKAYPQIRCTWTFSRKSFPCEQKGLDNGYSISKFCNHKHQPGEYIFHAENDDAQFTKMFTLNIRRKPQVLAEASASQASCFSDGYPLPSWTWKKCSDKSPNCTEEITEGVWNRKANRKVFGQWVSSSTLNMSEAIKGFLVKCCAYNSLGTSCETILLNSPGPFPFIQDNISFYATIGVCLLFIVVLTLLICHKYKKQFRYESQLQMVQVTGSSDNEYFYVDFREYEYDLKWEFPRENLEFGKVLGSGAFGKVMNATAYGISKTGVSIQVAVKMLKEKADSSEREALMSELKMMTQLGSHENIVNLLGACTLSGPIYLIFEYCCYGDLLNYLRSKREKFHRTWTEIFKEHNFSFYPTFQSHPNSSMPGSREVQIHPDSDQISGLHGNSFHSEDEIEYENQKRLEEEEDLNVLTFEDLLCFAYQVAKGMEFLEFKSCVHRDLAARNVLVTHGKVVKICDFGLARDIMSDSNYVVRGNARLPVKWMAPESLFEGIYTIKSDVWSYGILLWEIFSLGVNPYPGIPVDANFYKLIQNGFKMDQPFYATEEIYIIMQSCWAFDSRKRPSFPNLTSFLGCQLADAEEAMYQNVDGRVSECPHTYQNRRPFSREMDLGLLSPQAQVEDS
# Description: as §1
# as §4, with “FLT3” for “Aurora-B”, “[…] EAIYAAPFAKKK,” for “30 μM AKRRRLSSLRA,”, “[γ-^33P-ATP]” for “[γ-^33PATP]”, “of” for “of a”
# as §3
# [1] = Compound stability in human liver microsomes; format: in vitro ADME; conditions: pH 7.4; for half-life at 5 μM: human liver microsomes 0.5 mg protein/mL, compound 5 μM, NADPH 1.0 mM, 37° C., read-out: Human T1/2; for CLint scaled at 5 μM: human liver microsomes, in vivo CLint extrapolated
# Method in brief: (§5)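 Compound (5 μM) was incubated at 37° C with human or rat liver microsomes (0.5 mg protein/mL) and 1.0 mM NADPH in 100 mM potassium phosphate, pH 7.4, with 0.05% final DMSO. Samples taken at 0–60 min were quantified by LC/MS/MS as % of time zero, and CLint was extrapolated.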
# [2] = Compound stability in rat liver microsomes; format: in vitro ADME; conditions: pH 7.4; for half-life at 5 μM: rat liver microsomes 0.5 mg protein/mL, compound 5 μM, NADPH 1.0 mM, 37° C., read-out: Rat T1/2; for CLint scaled at 5 μM: rat liver microsomes, in vivo CLint extrapolated
# Method in brief: as §5
# [3] = Pharmacokinetics after intravenous and oral administration in rats; format: in vivo
# Method in brief: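 IV doses generally 0.5, 1 or 2 mg/kg; oral doses in rats generally 0.5, 1, 5 or 10 mg/kg, given as solution, suspension or capsule in various vehicles. Blood sampled over 0.083 or 0.25 h to 24 h; plasma analysed by LC/MS/MS.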
# [4] = rat, plasma, iv dosing, dose 1 mg/kg
# Sequence of JAK1 (h) (P23458 whole entry): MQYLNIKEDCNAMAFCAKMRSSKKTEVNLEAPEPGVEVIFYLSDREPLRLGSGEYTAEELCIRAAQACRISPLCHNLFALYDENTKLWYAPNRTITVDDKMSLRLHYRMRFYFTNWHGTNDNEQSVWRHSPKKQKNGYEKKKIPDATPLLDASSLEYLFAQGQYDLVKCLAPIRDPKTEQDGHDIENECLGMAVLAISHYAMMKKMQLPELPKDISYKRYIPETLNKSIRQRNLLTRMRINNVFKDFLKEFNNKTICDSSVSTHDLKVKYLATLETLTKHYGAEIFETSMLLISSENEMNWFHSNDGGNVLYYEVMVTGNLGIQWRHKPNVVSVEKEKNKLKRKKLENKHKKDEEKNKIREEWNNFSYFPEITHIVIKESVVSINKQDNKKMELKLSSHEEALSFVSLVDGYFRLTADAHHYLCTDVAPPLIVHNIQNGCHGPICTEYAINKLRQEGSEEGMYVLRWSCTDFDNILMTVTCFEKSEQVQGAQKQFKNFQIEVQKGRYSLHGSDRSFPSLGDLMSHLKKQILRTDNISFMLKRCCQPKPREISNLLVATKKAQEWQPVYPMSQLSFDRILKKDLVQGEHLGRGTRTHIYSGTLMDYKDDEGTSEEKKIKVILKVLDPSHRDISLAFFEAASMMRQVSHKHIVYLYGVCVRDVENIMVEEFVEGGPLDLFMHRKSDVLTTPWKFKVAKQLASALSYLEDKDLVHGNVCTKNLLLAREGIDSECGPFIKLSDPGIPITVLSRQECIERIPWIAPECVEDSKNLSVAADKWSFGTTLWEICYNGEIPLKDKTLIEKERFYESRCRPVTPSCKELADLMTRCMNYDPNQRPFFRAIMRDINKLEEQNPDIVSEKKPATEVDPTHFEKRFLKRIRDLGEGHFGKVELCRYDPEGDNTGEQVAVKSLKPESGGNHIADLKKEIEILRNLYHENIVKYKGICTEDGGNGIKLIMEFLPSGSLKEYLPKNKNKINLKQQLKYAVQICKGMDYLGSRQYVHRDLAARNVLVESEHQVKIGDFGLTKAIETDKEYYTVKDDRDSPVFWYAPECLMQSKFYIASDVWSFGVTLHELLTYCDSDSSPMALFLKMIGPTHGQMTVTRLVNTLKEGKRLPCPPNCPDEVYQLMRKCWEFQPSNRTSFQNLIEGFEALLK
IC50 (JAK1 (h)),IC50 (JAK2 (h)),IC50 (Aurora-A (h)),IC50 (Aurora-B (h)),IC50 (FLT3 (h)),SMILES,half-life at 5 μM [1],CLint scaled at 5 μM [1],half-life at 5 μM [2],CLint scaled at 5 μM [2],"Clearance (CL) after iv dosing ([3]; iv dosing, dose 1 mg/kg)","F ([3]; oral bioavailability, iv dose 1 mg/kg)","AUC(0-t) [3, 4]","half-life [3, 4]","Vd ([3]; rat, plasma, iv dosing, dose 1 mg/kg, read-out: Vss)"
0.0006 µM,0.02 µM,0.008 µM,–,–,"N#CCC(=O)N1CC2CC(Nc3nc(Nc4cnn(-c5ccccn5)c4)ncc3Cl)CC2C1 (centres unmarked) [Ex. 7, 3-(5-((5-chloro-2-((1-(pyridin-2-yl)-1H-pyrazol-4-yl)amino)pyrimidin-4-yl)amino)hexahydrocyclopenta[c]pyrrol-2(1H)-yl)-3-oxopropanenitrile]",–,–,–,–,–,–,–,–,–
< 0.0003 µM,0.016 µM,0.004 µM,–,–,"COc1ccc(-n2cc(Nc3ncc(Cl)c(NC4CC5CN(C(=O)CC#N)CC5C4)n3)cn2)cn1 (centres unmarked) [Ex. 10, 3-(5-((5-chloro-2-((1-(6-methoxypyridin-3-yl)-1H-pyrazol-4-yl)amino)pyrimidin-4-yl)amino)hexahydrocyclopenta[c]pyrrol-2(1H)-yl)-3-oxopropanenitrile]",–,–,–,–,–,–,–,–,–
0.008 µM,0.136 µM,0.01 µM,0.002 µM,0.503 µM,"CCOC(=O)N1CC2CC(Nc3nc(Nc4cnn(C)c4)ncc3Cl)CC2C1 (centres unmarked) [Ex. 15, ethyl 5-((5-chloro-2-((1-methyl-1H-pyrazol-4-yl)amino)pyrimidin-4-yl)amino)hexahydrocyclopenta[c]pyrrole-2(1H)-carboxylate]",–,–,–,–,–,–,–,–,–
0.012 µM,0.142 µM,0.011 µM,0.002 µM,1.02 µM,"CCNC(=O)N1CC2CC(Nc3nc(Nc4cnn(C)c4)ncc3Cl)CC2C1 (centres unmarked) [Ex. 18, 5-((5-chloro-2-((1-methyl-1H-pyrazol-4-yl)amino)pyrimidin-4-yl)amino)-N-ethylhexahydrocyclopenta[c]pyrrole-2(1H)-carboxamide]",2.42 h,12 mL/min/kg,0.158 h,263 mL/min/kg,–,–,–,–,–

SMILES,IC50 (JAK1 (h)),IC50 (JAK2 (h)),IC50 (Aurora-A (h)),IC50 (Aurora-B (h)),IC50 (FLT3 (h)),half-life at 5 μM [1],CLint scaled at 5 μM [1],half-life at 5 μM [2],CLint scaled at 5 μM [2],"Clearance (CL) after iv dosing ([3]; iv dosing, dose 1 mg/kg)","F ([3]; oral bioavailability, iv dose 1 mg/kg)","AUC(0-t) [3, 4]","half-life [3, 4]","Vd ([3]; rat, plasma, iv dosing, dose 1 mg/kg, read-out: Vss)"
"CC(C)(O)Cn1cc(Nc2ncc(Cl)c(NC3CCC4(CC3)CCN(S(C)(=O)=O)CC4)n2)cn1 [Ex. 37, 1-(4-((5-chloro-4-((3-(methylsulfonyl)-3-azaspiro[5.5]undecan-9-yl)amino)pyrimidin-2-yl)amino)-1H-pyrazol-1-yl)-2-methylpropan-2-ol]",0.002 µM,0.131 µM,0.071 µM,–,–,0.905 h,32 mL/min/kg,1.17 h,35.2 mL/min/kg,29.3 mL/min/kg,53.6%,604 ng·h/mL,1.25 h,2.61 L/kg
